Results: the NIST ThermoML archive (doi:10.1016/j.jct.2006.05.003)
± gives the expanded uncertainty stated by the source.

How the values were obtained:
[1] = 101 kPa, Liquid
[2] = refractive index (Na D-line) (dimensionless); settings: 101.33 kPa, Liquid, Standard Abbe refractometry
[3] = refractive index (Na D-line) (dimensionless); xn = mol fraction of the nth substance listed; settings: 101 kPa, Liquid, Standard Abbe refractometry
[4] = xn = mol fraction of the nth substance listed; settings: 101 kPa, Liquid

C1COCCO1 [1,4-dioxane]
Settings | mass density, [1] [kg/m3] | refractive index, [2]
298.15 K | 1027.87 ± 0.34 | 1.41995 ± 0.00058
313.15 K | 1010.69 ± 0.28 | 1.41264 ± 0.00058

C1COCCO1 [1,4-dioxane] + CC(C)(C)Cl
x1 = 1
Settings | mass density, [4] [kg/m3] | refractive index, [3]
298.15 K | 1027.87 ± 0.34 | 1.41995 ± 0.00058
313.15 K | 1010.69 ± 0.28 | 1.41264 ± 0.00058

C1COCCO1 [1,4-dioxane] + CC(C)CCl
x1 = 1
Settings | mass density, [4] [kg/m3] | refractive index, [3]
298.15 K | 1027.87 ± 0.34 | 1.41995 ± 0.00058
313.15 K | 1010.69 ± 0.28 | 1.41264 ± 0.00058

C1COCCO1 [1,4-dioxane] + CCC(C)Cl
x1 = 1
Settings | mass density, [4] [kg/m3] | refractive index, [3]
298.15 K | 1027.87 ± 0.34 | 1.41995 ± 0.00058
313.15 K | 1010.69 ± 0.28 | 1.41264 ± 0.00058

C1COCCO1 [1,4-dioxane] + CCCCCl
x1 = 1
Settings | mass density, [4] [kg/m3] | refractive index, [3]
298.15 K | 1027.87 ± 0.34 | 1.41995 ± 0.00058
313.15 K | 1010.69 ± 0.28 | 1.41264 ± 0.00058

C1COCCO1 [1,4-dioxane] + CCCCl
x1 = 1
Settings | mass density, [4] [kg/m3] | refractive index, [3]
298.15 K | 1027.87 ± 0.34 | 1.41995 ± 0.00058
313.15 K | 1010.69 ± 0.28 | 1.41264 ± 0.00058

CC(C)CCl [1-chloro-2-methylpropane]
Settings | mass density, [1] [kg/m3] | refractive index, [2]
298.15 K | 871.13 ± 0.8 | 1.39528 ± 0.00067
313.15 K | 853.51 ± 0.85 | 1.38686 ± 0.00067

CC(C)CCl [1-chloro-2-methylpropane] + C1COCCO1
Settings | mass density, [4] [kg/m3] | refractive index, [3]
298.15 K, x2 = 0 | 871.13 ± 0.8 | 1.39528 ± 0.00067
298.15 K, x2 = 0.045 | 876.79 ± 0.77 | 1.39616 ± 0.0007
298.15 K, x2 = 0.1196 | 886.36 ± 0.73 | 1.39763 ± 0.0007
298.15 K, x2 = 0.2433 | 902.87 ± 0.65 | 1.40025 ± 0.00069
298.15 K, x2 = 0.3412 | 916.58 ± 0.59 | 1.40243 ± 0.00069
298.15 K, x2 = 0.4407 | 931.19 ± 0.53 | 1.40471 ± 0.00069
298.15 K, x2 = 0.5447 | 947.22 ± 0.46 | 1.40725 ± 0.00068
298.15 K, x2 = 0.6463 | 963.67 ± 0.4 | 1.40983 ± 0.00068
298.15 K, x2 = 0.737 | 979.04 ± 0.34 | 1.4123 ± 0.00068
298.15 K, x2 = 0.8305 | 995.63 ± 0.28 | 1.41492 ± 0.00068
298.15 K, x2 = 0.9157 | 1011.45 ± 0.29 | 1.41742 ± 0.00068
298.15 K, x2 = 0.9515 | 1018.31 ± 0.31 | 1.41849 ± 0.00068
313.15 K, x2 = 0 | 853.51 ± 0.85 | 1.38686 ± 0.00067
313.15 K, x2 = 0.0474 | 859.42 ± 0.82 | 1.38783 ± 0.00067
313.15 K, x2 = 0.1492 | 872.58 ± 0.76 | 1.39001 ± 0.00067
313.15 K, x2 = 0.2654 | 888.36 ± 0.69 | 1.39259 ± 0.00068
313.15 K, x2 = 0.3687 | 903.12 ± 0.62 | 1.39504 ± 0.0007
313.15 K, x2 = 0.4565 | 916.21 ± 0.57 | 1.39721 ± 0.00072
313.15 K, x2 = 0.5541 | 931.39 ± 0.51 | 1.39973 ± 0.00075
313.15 K, x2 = 0.6426 | 945.76 ± 0.45 | 1.40211 ± 0.00079
313.15 K, x2 = 0.7423 | 962.69 ± 0.39 | 1.40489 ± 0.00083
313.15 K, x2 = 0.8326 | 978.76 ± 0.33 | 1.40752 ± 0.00088
313.15 K, x2 = 0.9112 | 993.38 ± 0.28 | 1.40987 ± 0.00091
313.15 K, x2 = 0.9606 | 1002.9 ± 0.26 | 1.41139 ± 0.00097

CCCCCl [1-chlorobutane]
Settings | mass density, [1] [kg/m3] | refractive index, [2]
298.15 K | 880.69 ± 0.77 | 1.3995 ± 0.00066
313.15 K | 863.82 ± 0.82 | 1.39133 ± 0.00066

CCCCCl [1-chlorobutane] + C1COCCO1
Settings | mass density, [4] [kg/m3] | refractive index, [3]
298.15 K, x2 = 0 | 880.69 ± 0.77 | 1.3995 ± 0.00066
298.15 K, x2 = 0.0418 | 885.54 ± 0.75 | 1.40011 ± 0.0007
298.15 K, x2 = 0.1141 | 894.14 ± 0.71 | 1.40119 ± 0.0007
298.15 K, x2 = 0.2426 | 910.06 ± 0.63 | 1.40328 ± 0.00069
298.15 K, x2 = 0.3358 | 922.21 ± 0.57 | 1.40491 ± 0.00069
298.15 K, x2 = 0.4518 | 938.11 ± 0.5 | 1.40709 ± 0.00069
298.15 K, x2 = 0.5509 | 952.44 ± 0.44 | 1.40908 ± 0.00068
298.15 K, x2 = 0.5914 | 958.52 ± 0.42 | 1.40994 ± 0.00068
298.15 K, x2 = 0.738 | 981.64 ± 0.33 | 1.41323 ± 0.00068
298.15 K, x2 = 0.8235 | 995.99 ± 0.28 | 1.41529 ± 0.00059
298.15 K, x2 = 0.9104 | 1011.29 ± 0.29 | 1.41752 ± 0.00068
298.15 K, x2 = 0.987 | 1025.41 ± 0.33 | 1.4196 ± 0.00068
313.15 K, x2 = 0 | 863.82 ± 0.82 | 1.39133 ± 0.00066
313.15 K, x2 = 0.0344 | 867.83 ± 0.8 | 1.39188 ± 0.00066
313.15 K, x2 = 0.117 | 877.61 ± 0.75 | 1.39321 ± 0.00065
313.15 K, x2 = 0.2279 | 891.26 ± 0.69 | 1.39506 ± 0.00066
313.15 K, x2 = 0.3499 | 907.15 ± 0.62 | 1.39732 ± 0.00068
313.15 K, x2 = 0.4442 | 920.15 ± 0.56 | 1.39917 ± 0.0007
313.15 K, x2 = 0.55 | 935.51 ± 0.49 | 1.40138 ± 0.00074
313.15 K, x2 = 0.645 | 950.02 ± 0.44 | 1.40351 ± 0.00079
313.15 K, x2 = 0.7456 | 966.15 ± 0.38 | 1.40591 ± 0.00084
313.15 K, x2 = 0.8238 | 979.22 ± 0.33 | 1.40786 ± 0.00059
313.15 K, x2 = 0.9143 | 995.01 ± 0.27 | 1.41024 ± 0.00096
313.15 K, x2 = 0.9636 | 1003.94 ± 0.27 | 1.41159 ± 0.001

CCCCl [1-chloropropane]
Settings | mass density, [1] [kg/m3] | refractive index, [2]
298.15 K | 884.26 ± 0.77 | 1.3856 ± 0.0007
313.15 K | 865.14 ± 0.82 | 1.37673 ± 0.0007
